Source: ChEMBL document CHEMBL3639321, “Triazolopyridine compounds as PIM kinase inhibitors” (2013)

Columns and labels:
[1] = biological target: Serine/threonine-protein kinase pim-3 (Rattus norvegicus, UniProt O70444); test: (§1) PIM-3 Enzyme Assay: The assay for the determination of PIM activity is based on the incorporation of [33P] ATP into PIM2tide substrate and capture of the radiolabeled peptide onto a Whatman P81 (phosphocellulose) filter plate. Assay mixtures contained 30 uM [gamma-33P] ATP (20 uCi/mL), 3.75 uM PIM2tide and 0.5 nM recombinant rat PIM-3 in place of PIM-1.
[2] = biological target: Serine/threonine-protein kinase pim-2 (Homo sapiens, UniProt Q9P1W9); test: as §1, with “PIM-2” for “PIM-3”, “4” for “30”, “1.0” for “3.75”, “[…] PIM-2” for “0.5 nM recombinant rat PIM-3”
Serine/threonine-protein kinase pim-2, sequence (Q9P1W9 whole entry): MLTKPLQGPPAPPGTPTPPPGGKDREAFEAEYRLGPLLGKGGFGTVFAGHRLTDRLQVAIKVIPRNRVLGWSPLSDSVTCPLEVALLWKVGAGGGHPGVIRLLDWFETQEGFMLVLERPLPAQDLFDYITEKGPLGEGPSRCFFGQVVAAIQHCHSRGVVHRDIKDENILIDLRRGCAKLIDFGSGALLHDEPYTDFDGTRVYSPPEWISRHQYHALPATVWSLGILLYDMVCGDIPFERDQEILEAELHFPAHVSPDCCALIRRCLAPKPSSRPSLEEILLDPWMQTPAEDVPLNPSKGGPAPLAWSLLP

IC50 [1]: 448 nM | IC50 [2]: ≥ 10000 nM
Structure (SMILES): CC1(C)CC(Nc2cccc3ccc(-c4nnc5ccccn45)nc23)CC(C)(C)N1
